Measurements from patent publication US9833497B2, “Human originated EGF domain proteins and use of the same” (CHENGDU SOURCEBIO LIMITED-LIABILITY COMPANY, priority 2013, dated 2017).

What was measured:
Format in all cases: cell-based
[1] = system: E. coli DH5α; assay: Antibacterial activity: MIC and growth curve against E. coli DH5α in 96-well plate; conditions: minimal inhibitory concentration against E. coli DH5α; 96-well plate, 5×10^5 CFU/mL, 37° C., judged after 8 h
Procedure, shortened: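 Log-phase bacteria (OD600 ~0.5) resuspended in LB at 5×10^5 CFU/mL, exposed to recombinant protein at 50, 25, 12.5 μg/mL final in triplicate, 37 °C shaking at 175 rpm. OD600 read every 30 min; MIC is lowest concentration showing no growth.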

[2] = system: E. coli BL21; assay: MIC against Gram-negative bacteria: E. coli BL21; conditions: for MIC against E. coli BL21 / MIC (μg/mL) E. coli BL21 / MIC E. coli BL21: 5×10^5 CFU/mL; for MIC E. coli BL21: two-fold serial dilution
Procedure, shortened: (§1)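 First, colonies from LB agar were grown in LB at 37° C, 185 rpm, to McFarland turbidity 0.5, then centrifuged and resuspended in fresh LB. Next, wells received 5×10^5 CFU/mL bacteria plus two-fold serially diluted EGF domain protein (triplicate). Finally, plates were shaken at 37° C and the no-growth concentration taken as MIC.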

[3] = system: Pseudomonas aeruginosa; assay: MIC against Gram-negative bacteria: Pseudomonas aeruginosa; conditions: for MIC against P. aeruginosa / MIC (μg/mL) P. aeruginosa / MIC P. aeruginosa: 5×10^5 CFU/mL; for MIC P. aeruginosa: two-fold serial dilution
Procedure, shortened: as §1

[4] = system: Klebsiella pneumonia; assay: MIC against Gram-negative bacteria: Klebsiella pneumonia; conditions: for MIC against K. pneumonia / MIC (μg/mL) K. pneumonia / MIC K. pneumonia: 5×10^5 CFU/mL; for MIC K. pneumonia: two-fold serial dilution
Procedure, shortened: as §1

[5] = system: Enterobacter cloacae; assay: MIC against Gram-negative bacteria: Enterobacter cloacae; conditions: for MIC against E. cloacae / MIC (μg/mL) E. cloacae / MIC E. cloacae: 5×10^5 CFU/mL; for MIC E. cloacae: two-fold serial dilution
Procedure, shortened: as §1

[6] = system: Aeromonas hydrophila; assay: MIC against Gram-negative bacteria: Aeromonas hydrophila; conditions: for MIC against A. hydrophila / MIC (μg/mL) A. hydrophila / MIC A. hydrophila: 5×10^5 CFU/mL; for MIC A. hydrophila: two-fold serial dilution
Procedure, shortened: as §1

[7] = system: Citrobacter diversus; assay: MIC against Gram-negative bacteria: Citrobacter diversus; conditions: for MIC against C. diversus / MIC (μg/mL) C. diversus / MIC C. diversus: 5×10^5 CFU/mL; for MIC C. diversus: two-fold serial dilution
Procedure, shortened: as §1

[8] = system: Moraxella catarrhalis; assay: MIC against Gram-negative bacteria: Moraxella catarrhalis; conditions: for MIC against M. catarrhalis / MIC (μg/mL) M. catarrhalis / MIC M. catarrhalis: 5×10^5 CFU/mL; for MIC M. catarrhalis: two-fold serial dilution
Procedure, shortened: as §1

[9] = system: Proteus mirabilis; assay: MIC against Gram-negative bacteria: Proteus mirabilis; conditions: for MIC against P. mirabilis / MIC (μg/mL) P. mirabilis / MIC P. mirabilis: 5×10^5 CFU/mL; for MIC P. mirabilis: two-fold serial dilution
Procedure, shortened: as §1

[10] = system: Proteus vulgaris; assay: MIC against Gram-negative bacteria: Proteus vulgaris; conditions: for MIC against P. vulgaris / MIC (μg/mL) P. vulgaris / MIC P. vulgaris: 5×10^5 CFU/mL; for MIC P. vulgaris: two-fold serial dilution
Procedure, shortened: as §1

[11] = system: Serratia marcescens; assay: MIC against Gram-negative bacteria: Serratia marcescens; conditions: for MIC against S. marcescens / MIC (μg/mL) S. marcescens / MIC S. marcescens: 5×10^5 CFU/mL; for MIC S. marcescens: two-fold serial dilution
Procedure, shortened: as §1

[12] = E. coli BL21, 10 h cultivation at 37° C.
[13] = P. aeruginosa, 10 h cultivation at 37° C.
[14] = K. pneumonia, 10 h cultivation at 37° C.
[15] = E. cloacae, 10 h cultivation at 37° C.
[16] = A. hydrophila, 10 h cultivation at 37° C.
[17] = C. diversus, 10 h cultivation at 37° C.
[18] = M. catarrhalis, 10 h cultivation at 37° C.
[19] = P. mirabilis, 10 h cultivation at 37° C.
[20] = P. vulgaris, 10 h cultivation at 37° C.
[21] = S. marcescens, 10 h cultivation at 37° C.

PRT1447 (GCGAGRWGPGCTKECPGCLHGGVCHDHDGECVCPPGFTGTRCE; listed as Homo sapiens)
MIC [1]: 100 µg/mL
MIC against E. coli BL21 [2, 12]: 25 µg/mL
MIC against P. aeruginosa ([3]; Pseudomonas aeruginosa, 10 h cultivation at 37° C.): 12.5 µg/mL
MIC against K. pneumonia ([4]; Klebsiella pneumonia, 10 h cultivation at 37° C.): 12.5 µg/mL
MIC against E. cloacae ([5]; Enterobacter cloacae, 10 h cultivation at 37° C.): 12.5 µg/mL
MIC against A. hydrophila ([6]; Aeromonas hydrophila, 10 h cultivation at 37° C.): 50 µg/mL
MIC against C. diversus ([7]; Citrobacter diversus, 10 h cultivation at 37° C.): 12.5 µg/mL
MIC against M. catarrhalis ([8]; Moraxella catarrhalis, 10 h cultivation at 37° C.): 50 µg/mL
MIC against P. mirabilis ([9]; Proteus mirabilis, 10 h cultivation at 37° C.): 25 µg/mL
MIC against P. vulgaris ([10]; Proteus vulgaris, 10 h cultivation at 37° C.): 12.5 µg/mL
MIC against S. marcescens ([11]; Serratia marcescens, 10 h cultivation at 37° C.): 25 µg/mL

PRT488 (DRCQLQTRCQNGGQWDGLKCQCPSTFYGSSCE; listed as Homo sapiens)
MIC [1]: 50 µg/mL
MIC against E. coli BL21 ([2]; 96-well plate, 37° C., 10 h): 12.5 µg/mL
MIC against P. aeruginosa ([3]; 96-well plate, 37° C., 10 h): 50 µg/mL
MIC against K. pneumonia ([4]; 96-well plate, 37° C., 10 h): 12.5 µg/mL
MIC against E. cloacae ([5]; 96-well plate, 37° C., 10 h): 50 µg/mL
MIC against A. hydrophila ([6]; 96-well plate, 37° C., 10 h): 12.5 µg/mL
MIC against C. diversus ([7]; 96-well plate, 37° C., 10 h): 50 µg/mL
MIC against M. catarrhalis ([8]; 96-well plate, 37° C., 10 h): 12.5 µg/mL
MIC against P. mirabilis ([9]; 96-well plate, 37° C., 10 h): 50 µg/mL
MIC against P. vulgaris ([10]; 96-well plate, 37° C., 10 h): 12.5 µg/mL
MIC against S. marcescens ([11]; 96-well plate, 37° C., 10 h): 50 µg/mL

PRT6 (TRKLCSLDNGDCDQFCHEEQNSVVCSCARGYTLADNGKACI; listed as Homo sapiens)
MIC [1]: 50 µg/mL
MIC (μg/mL) E. coli BL21 ([2]; E. coli BL21, 96-well plate, 37° C., 10 h): 50 µg/mL
MIC (μg/mL) P. aeruginosa ([3]; Pseudomonas aeruginosa, 96-well plate, 37° C., 10 h): 25 µg/mL
MIC (μg/mL) K. pneumonia ([4]; Klebsiella pneumonia, 96-well plate, 37° C., 10 h): 50 µg/mL
MIC (μg/mL) E. cloacae ([5]; Enterobacter cloacae, 96-well plate, 37° C., 10 h): 25 µg/mL
MIC (μg/mL) A. hydrophila ([6]; Aeromonas hydrophila, 96-well plate, 37° C., 10 h): 12.5 µg/mL
MIC (μg/mL) C. diversus ([7]; Citrobacter diversus, 96-well plate, 37° C., 10 h): 25 µg/mL
MIC (μg/mL) M. catarrhalis ([8]; Moraxella catarrhalis, 96-well plate, 37° C., 10 h): 25 µg/mL
MIC (μg/mL) P. mirabilis ([9]; Proteus mirabilis, 96-well plate, 37° C., 10 h): 12.5 µg/mL
MIC (μg/mL) P. vulgaris ([10]; Proteus vulgaris, 96-well plate, 37° C., 10 h): 25 µg/mL
MIC (μg/mL) S. marcescens ([11]; Serratia marcescens, 96-well plate, 37° C., 10 h): 25 µg/mL

PRT778 (QNQSCPVNYCYNQGHCYISQTLGCQPMCTCPPAFTDSRCF; listed as Homo sapiens)
MIC [1]: 50 µg/mL
MIC (μg/mL) E. coli BL21 [2, 12]: 12.5 µg/mL
MIC (μg/mL) P. aeruginosa [3, 13]: 50 µg/mL
MIC (μg/mL) K. pneumonia [4, 14]: 12.5 µg/mL
MIC (μg/mL) E. cloacae [5, 15]: 50 µg/mL
MIC (μg/mL) A. hydrophila [6, 16]: 12.5 µg/mL
MIC (μg/mL) C. diversus [7, 17]: 12.5 µg/mL
MIC (μg/mL) M. catarrhalis [8, 18]: 12.5 µg/mL
MIC (μg/mL) P. mirabilis [9, 19]: 12.5 µg/mL
MIC (μg/mL) P. vulgaris [10, 20]: 25 µg/mL
MIC (μg/mL) S. marcescens [11, 21]: 12.5 µg/mL

PRT1189 (ECVPYPGCVHGSCVEPWQCNCETNWGGLLCD; listed as Homo sapiens)
MIC [1]: 50 µg/mL
MIC E. coli BL21 ([2]; 10 h cultivation at 37° C.): 12.5 µg/mL
MIC P. aeruginosa ([3]; 10 h cultivation at 37° C.): 25 µg/mL
MIC K. pneumonia ([4]; 10 h cultivation at 37° C.): 50 µg/mL
MIC E. cloacae ([5]; 10 h cultivation at 37° C.): 12.5 µg/mL
MIC A. hydrophila ([6]; 10 h cultivation at 37° C.): 25 µg/mL
MIC C. diversus ([7]; 10 h cultivation at 37° C.): 50 µg/mL
MIC M. catarrhalis ([8]; 10 h cultivation at 37° C.): 12.5 µg/mL
MIC P. mirabilis ([9]; 10 h cultivation at 37° C.): 25 µg/mL
MIC P. vulgaris ([10]; 10 h cultivation at 37° C.): 50 µg/mL
MIC S. marcescens ([11]; 10 h cultivation at 37° C.): 12.5 µg/mL

PRT1048 (YGKRCVPCKCANHSFCHPSNGTCYCLAGWTGPDCS; listed as Homo sapiens)
MIC [1]: 12.5 µg/mL
MIC E. coli BL21 ([2]; 10 h cultivation at 37° C.): 25 µg/mL
MIC P. aeruginosa ([3]; 10 h cultivation at 37° C.): 50 µg/mL
MIC K. pneumonia ([4]; 10 h cultivation at 37° C.): 25 µg/mL
MIC E. cloacae ([5]; 10 h cultivation at 37° C.): 12.5 µg/mL
MIC A. hydrophila ([6]; 10 h cultivation at 37° C.): 25 µg/mL
MIC C. diversus ([7]; 10 h cultivation at 37° C.): 50 µg/mL
MIC M. catarrhalis ([8]; 10 h cultivation at 37° C.): 25 µg/mL
MIC P. mirabilis ([9]; 10 h cultivation at 37° C.): 12.5 µg/mL
MIC P. vulgaris ([10]; 10 h cultivation at 37° C.): 50 µg/mL
MIC S. marcescens ([11]; 10 h cultivation at 37° C.): 12.5 µg/mL

PRT914 (DARTCGSLRCLNGGTCISGPRSPTCLCLGPFTGPECQ; listed as Homo sapiens)
MIC [1]: 12.5 µg/mL
MIC [2, 12]: 25 µg/mL
MIC [3, 13]: 12.5 µg/mL
MIC [4, 14]: 12.5 µg/mL
MIC [5, 15]: 25 µg/mL
MIC [6, 16]: 12.5 µg/mL
MIC [7, 17]: 12.5 µg/mL
MIC [8, 18]: 12.5 µg/mL
MIC [9, 19]: 12.5 µg/mL
MIC [10, 20]: 12.5 µg/mL
MIC [11, 21]: 12.5 µg/mL
